According to ChEMBL document CHEMBL4477245, “Development of a Series of (1-Benzyl-3-(6-methoxypyrimidin-3-yl)-5-(trifluoromethoxy)-1H-indol-2-yl)methanols as Selective Protease Activated Receptor 4 (PAR4) Antagonists with in Vivo Utility and Activity Against γ-Thrombin” (J Med Chem, 2016):
pIC50: −log10 of the molar value. Active and inactive are the calls of the source. The rule behind the calls is not given here.

Tests used:
[1] = target: T1, Proteinase-activated receptor 4 (Homo sapiens) (UniProt Q96RI0); assay: Antagonist activity against PAR4 activating peptide domain in human platelets assessed as inhibition of alpha2bbeta3 activation level at 10 uM by PAC1 binding assay
T1 sequence (whole entry): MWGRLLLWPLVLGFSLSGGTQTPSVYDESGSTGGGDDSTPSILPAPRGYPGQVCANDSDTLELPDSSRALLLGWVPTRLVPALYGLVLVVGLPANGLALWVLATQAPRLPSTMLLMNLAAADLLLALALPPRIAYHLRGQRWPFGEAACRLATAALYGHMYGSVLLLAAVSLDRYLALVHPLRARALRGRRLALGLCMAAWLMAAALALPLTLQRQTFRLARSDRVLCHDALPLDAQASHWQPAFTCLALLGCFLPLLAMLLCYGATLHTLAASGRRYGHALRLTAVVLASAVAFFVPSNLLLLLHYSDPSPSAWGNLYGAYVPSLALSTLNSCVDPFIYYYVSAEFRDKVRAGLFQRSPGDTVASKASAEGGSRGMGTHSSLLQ

[2] = target: T2, Proteinase-activated receptor 4 (Homo sapiens, UniProt Q96RI0); assay: Antagonist activity against PAR4 activating peptide domain in human platelets assessed as inhibition of alpha2bbeta3 activation level by PAC1 binding assay
T2 sequence (Q96RI0 whole entry): T1 sequence (whole entry)

[3] = target: T3, Proteinase-activated receptor 1 (Homo sapiens, UniProt P25116); assay: Inhibition of PAR1 (unknown origin)
T3 sequence (P25116 whole entry): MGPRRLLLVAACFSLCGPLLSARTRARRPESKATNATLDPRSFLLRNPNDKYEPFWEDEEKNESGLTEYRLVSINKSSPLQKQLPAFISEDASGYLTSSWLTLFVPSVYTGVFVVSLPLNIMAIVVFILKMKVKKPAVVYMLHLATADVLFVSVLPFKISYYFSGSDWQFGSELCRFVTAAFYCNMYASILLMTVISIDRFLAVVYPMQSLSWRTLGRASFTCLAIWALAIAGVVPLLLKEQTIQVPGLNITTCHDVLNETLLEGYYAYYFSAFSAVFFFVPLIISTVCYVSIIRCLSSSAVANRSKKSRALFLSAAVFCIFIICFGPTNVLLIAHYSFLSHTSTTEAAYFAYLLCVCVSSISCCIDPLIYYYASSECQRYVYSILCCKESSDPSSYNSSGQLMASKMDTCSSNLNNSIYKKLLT

[4] = Unbound protein binding in human plasma; format: ADME, cell-free
[5] = Unbound protein binding in rat plasma; format: ADME, cell-free
[6] = target: T2, Proteinase-activated receptor 4; assay: Antagonist activity against PAR4 activating peptide domain in human platelets assessed as inhibition of P-selectin activation
[7] = target: T1, Proteinase-activated receptor 4 (Homo sapiens); assay: Mixed competitive/non-competitive inhibition of PAR4 activating peptide domain in human platelets assessed as inhibition of alpha2bbeta3 activation level by PAC1 binding assay based by Schild analysis
[8] = Unbound protein binding in rat plasma at 5 uM after 4 hrs by LC/MS/MS analysis
[9] = Unbound protein binding in human plasma at 5 uM after 4 hrs by LC/MS/MS analysis
[10] = Volume of distribution in steady state in Sprague-Dawley rat at 0.2 mg/kg, iv through cassette dosing up to 6 hrs by LC-MS/MS method; conditions: in vivo
[11] = Half life in Sprague-Dawley rat at 0.2 mg/kg, iv through cassette dosing up to 6 hrs by LC-MS/MS method; conditions: in vivo
[12] = target: T2, Proteinase-activated receptor 4; assay: Antagonist activity at PAR4 TL domain in human platelets assessed as gamma-thrombin-induced PAC1 binding response preincubated for 20 mins followed by agonist addition for 20 mins by FITC based flow cytometric analysis
[13] = target: T1, Proteinase-activated receptor 4 (Homo sapiens); assay: Antagonist activity at PAR4 TL domain in human platelets assessed as gamma-thrombin-induced PAC1 binding response at 10 uM preincubated for 20 mins followed by agonist addition for 20 mins by FITC based flow cytometric analysis
Cytochrome P450 1A2 = target: T4, Cytochrome P450 1A2 (Homo sapiens, UniProt P05177); assay: Inhibition of CYP1A2 in human liver microsomes incubated for 15 mins using phenacetin substrate in presence of NADPH by LC-MS/MS method
T4 sequence (P05177 whole entry): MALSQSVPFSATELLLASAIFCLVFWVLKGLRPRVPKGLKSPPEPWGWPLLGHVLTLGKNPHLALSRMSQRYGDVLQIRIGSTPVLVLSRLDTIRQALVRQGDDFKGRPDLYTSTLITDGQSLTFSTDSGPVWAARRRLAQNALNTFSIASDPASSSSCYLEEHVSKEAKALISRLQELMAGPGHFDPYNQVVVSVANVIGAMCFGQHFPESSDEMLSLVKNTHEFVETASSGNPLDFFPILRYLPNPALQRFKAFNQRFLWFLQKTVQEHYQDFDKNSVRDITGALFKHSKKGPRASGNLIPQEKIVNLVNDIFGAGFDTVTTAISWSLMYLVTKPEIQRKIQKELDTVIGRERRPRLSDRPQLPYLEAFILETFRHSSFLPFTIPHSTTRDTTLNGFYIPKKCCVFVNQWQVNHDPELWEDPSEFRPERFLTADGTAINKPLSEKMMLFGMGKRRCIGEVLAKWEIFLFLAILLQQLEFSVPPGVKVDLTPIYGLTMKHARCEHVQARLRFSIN

Cytochrome P450 2C9 = Cytochrome P450 2C9 (Homo sapiens, UniProt P11712); assay: Inhibition of CYP2C9 in human liver microsomes incubated for 15 mins using diclofenac substrate in presence of NADPH by LC-MS/MS method
Cytochrome P450 2D6 = Cytochrome P450 2D6 (Homo sapiens, UniProt P10635); assay: Inhibition of CYP2D6 in human liver microsomes incubated for 15 mins using dextromethorphan substrate in presence of NADPH by LC-MS/MS method
Cytochrome P450 3A4 = Cytochrome P450 3A4 (Homo sapiens, UniProt P08684); assay: Inhibition of CYP3A4 in human liver microsomes incubated for 15 mins using midazolam substrate in presence of NADPH by LC-MS/MS method
Chain of Cytochrome P450 3A4 (P08684 whole entry): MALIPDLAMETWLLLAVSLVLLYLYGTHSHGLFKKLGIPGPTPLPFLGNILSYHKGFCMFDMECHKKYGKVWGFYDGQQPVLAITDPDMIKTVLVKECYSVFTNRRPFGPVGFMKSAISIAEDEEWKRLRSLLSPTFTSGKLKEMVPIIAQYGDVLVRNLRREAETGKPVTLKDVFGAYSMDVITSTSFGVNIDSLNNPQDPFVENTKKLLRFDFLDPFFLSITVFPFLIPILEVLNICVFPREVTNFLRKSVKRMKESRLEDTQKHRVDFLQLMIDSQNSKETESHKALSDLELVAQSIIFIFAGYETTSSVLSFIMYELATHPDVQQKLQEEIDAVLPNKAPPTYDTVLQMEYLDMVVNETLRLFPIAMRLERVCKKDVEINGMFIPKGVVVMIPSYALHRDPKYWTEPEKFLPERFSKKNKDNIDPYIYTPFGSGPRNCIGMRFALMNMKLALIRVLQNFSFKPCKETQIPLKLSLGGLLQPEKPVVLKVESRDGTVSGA

Chain of Cytochrome P450 2D6 (P10635 whole entry): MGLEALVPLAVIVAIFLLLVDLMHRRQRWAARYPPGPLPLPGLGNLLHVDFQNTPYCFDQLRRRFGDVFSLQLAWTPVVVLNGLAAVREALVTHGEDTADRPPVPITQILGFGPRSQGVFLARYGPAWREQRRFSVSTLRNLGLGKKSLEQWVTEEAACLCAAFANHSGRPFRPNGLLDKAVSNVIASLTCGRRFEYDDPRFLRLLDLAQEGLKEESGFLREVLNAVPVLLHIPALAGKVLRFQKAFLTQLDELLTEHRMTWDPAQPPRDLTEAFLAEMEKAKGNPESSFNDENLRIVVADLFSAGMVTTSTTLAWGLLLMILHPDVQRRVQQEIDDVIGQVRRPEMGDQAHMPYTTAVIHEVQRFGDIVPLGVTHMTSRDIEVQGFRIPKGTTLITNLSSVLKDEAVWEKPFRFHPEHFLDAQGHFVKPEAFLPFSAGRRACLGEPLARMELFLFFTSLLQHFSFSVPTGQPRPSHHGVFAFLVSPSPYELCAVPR
Chain of Cytochrome P450 2C9 (P11712 whole entry): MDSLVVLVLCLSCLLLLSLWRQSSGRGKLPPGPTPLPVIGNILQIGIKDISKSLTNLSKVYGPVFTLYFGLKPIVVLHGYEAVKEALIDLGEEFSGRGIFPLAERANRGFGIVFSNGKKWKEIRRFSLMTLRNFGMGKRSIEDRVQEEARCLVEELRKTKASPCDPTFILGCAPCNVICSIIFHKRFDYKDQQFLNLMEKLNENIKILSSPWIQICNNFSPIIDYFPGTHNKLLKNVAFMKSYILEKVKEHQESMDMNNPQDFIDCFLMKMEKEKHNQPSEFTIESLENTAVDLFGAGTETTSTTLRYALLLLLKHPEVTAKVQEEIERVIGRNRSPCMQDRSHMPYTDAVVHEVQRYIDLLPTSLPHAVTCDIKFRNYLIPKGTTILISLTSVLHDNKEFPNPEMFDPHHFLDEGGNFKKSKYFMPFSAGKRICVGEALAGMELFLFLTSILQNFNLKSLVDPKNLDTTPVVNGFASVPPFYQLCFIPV

%max [1] | pIC50 [2] | other results | Compound
27.1% | 5.66 | – | COc1ccc(-c2c(CO)n(Cc3cccc(Br)c3)c3ccc(OC(F)(F)F)cc23)cn1
19.7% | 5.42 | – | CCOc1ccc2c(-c3ccc(OC)nc3)c(CO)n(Cc3ccccc3Cl)c2c1
12.3% | 6.03 | pIC50 [3]: < 4.52 | COc1ccc(-c2c(CO)n(Cc3ccccc3Cl)c3cc(OC(F)(F)F)ccc23)cn1
– | – | PB [4]: Unstable; PB [5]: Unstable | CCOC(=O)c1ccc(-c2cn(Cc3ccccc3)c3ccccc23)cc1
19.7% | 5.29 | pIC50 [3]: < 4.52 | COc1ccc(-c2c(CO)n(Cc3ccc(F)cc3F)c3ccc(OC(F)(F)F)cc23)cn1
96.1% | < 5.00 | – | OCc1c(-c2cncnc2)c2cc(OC(F)(F)F)ccc2n1Cc1ccc(F)cc1F
19.7% | 5.32 | – | COc1ccc(-c2c(CO)n(Cc3cccc(C(F)(F)F)c3)c3ccc(OC(F)(F)F)cc23)cn1
15.6% | 5.83 | – | CSc1ncc(-c2c(CO)n(Cc3ccc(F)cc3F)c3ccc(OC(F)(F)F)cc23)cn1
5.57% | 6.68 | pIC50 [3]: < 4.52 | CSc1ncc(-c2c(CO)n(Cc3ccccc3Cl)c3cc(OC(F)(F)F)ccc23)cn1
53.6% | – | – | COc1ncc(-c2c(CO)n(Cc3ccc(F)cc3F)c3ccc(OC(F)(F)F)cc23)cn1
4.31% | 5.86 | – | COc1ccc2c(-c3ccc(OC)nc3)c(CO)n(Cc3ccccc3Cl)c2c1
21.3% | 5.38 | – | COc1ccc2c(-c3cnc(SC)nc3)c(CO)n(Cc3ccccc3Cl)c2c1
80.6% | < 5.00 | – | COc1ccc(-c2c(CO)n(Cc3cccc(F)c3)c3ccc(OC(F)(F)F)cc23)cn1
3.2% | 6.74 | pIC50 [3]: < 4.52; pIC50 [6]: 6.88; inhibition [7]: Active; Fu [8]: 0.003; Fu [9]: 0.004; Vdss [10]: 21.1 L/kg; t1/2 [11]: 6.1 h; pIC50 [12]: 5.36; inhibition [13]: 39.4%; pIC50 (Cytochrome P450 1A2): < 4.52; pIC50 (Cytochrome P450 2C9): 4.95; pIC50 (Cytochrome P450 2D6): 5.92; pIC50 (Cytochrome P450 3A4): < 4.52 | COc1nn2cc(-c3c(CO)n(Cc4ccccc4Cl)c4ccc(OC(F)(F)F)cc34)nc2s1
108% | < 5.00 | – | COc1cccc(Cn2c(CO)c(-c3ccc(OC)nc3)c3cc(C(F)(F)F)ccc32)c1
101% | < 5.00 | – | OCc1c(-c2ccncc2)c2cc(OC(F)(F)F)ccc2n1Cc1ccccc1Cl
7.95% | 5.82 | – | COc1ncc(-c2c(CO)n(Cc3ccccc3Cl)c3ccc(OC(F)(F)F)cc23)cn1
35.4% | 5.31 | – | CCOc1ncc(-c2c(CO)n(Cc3ccccc3Cl)c3ccc(OC(F)(F)F)cc23)cn1
89% | < 5.00 | – | COc1ccc(-c2c(CO)n(Cc3ccccc3F)c3ccc(OC(F)(F)F)cc23)cn1
53.4% | < 5.00 | – | COc1ccc(-c2c(CO)n(Cc3ccccc3)c3ccc(OC(F)(F)F)cc23)cn1
95.5% | < 5.00 | – | COc1ccc(-c2c(CO)n(Cc3cccc(Cl)c3)c3ccc(OC(F)(F)F)cc23)cn1
– | – | PB [4]: Unstable; PB [5]: Unstable | CCOC(=O)c1ccc(-c2nn(Cc3ccccc3)c3ccccc23)cc1
– | – | inhibition [7]: Active | COc1ccc(-c2c(CO)n(Cc3ccccc3Cl)c3ccc(OC(F)(F)F)cc23)cn1
106% | < 5.00 | – | COc1ccc(-c2c(CO)n(C)c3ccc(C(F)(F)F)cc23)cn1
